Experimental findings from patent US20150273027A1, “LIQUID PHARMACEUTICAL COMPOSITION OF FACTOR VII POLYPEPTIDE” (Novo Nordisk Healthcare AG, priority 2012, published 2015) are described below.

One assay has as its target T1, SF-rFVIIa (Homo sapiens, UniProt P08709).
T1 construct: made in house
T1 sequence (P08709 213-466 limits assumed): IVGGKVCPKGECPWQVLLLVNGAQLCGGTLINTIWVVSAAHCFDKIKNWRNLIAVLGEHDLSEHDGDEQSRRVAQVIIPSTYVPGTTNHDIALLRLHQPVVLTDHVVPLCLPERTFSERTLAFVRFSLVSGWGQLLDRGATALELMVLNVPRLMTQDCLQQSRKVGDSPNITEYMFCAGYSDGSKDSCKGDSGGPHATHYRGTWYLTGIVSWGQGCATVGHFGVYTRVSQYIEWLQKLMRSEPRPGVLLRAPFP
T1 sequence (P08709 61-212 limits assumed): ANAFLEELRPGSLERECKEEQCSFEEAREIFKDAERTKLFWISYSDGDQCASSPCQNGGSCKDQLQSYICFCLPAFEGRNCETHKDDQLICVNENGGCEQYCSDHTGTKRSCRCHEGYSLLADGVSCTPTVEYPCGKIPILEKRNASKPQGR
Put plainly: Isothermal titration calorimetry (iTC200) binding to SF-rFVIIa. To be noted: for Kd: SF-rFVIIa. The procedure: (§1) All proteases were dialyzed extensively in binding buffer: 10 mM HEPES pH 7.4, 150 mM NaCl, 0.005% v/v Surfactant P20, 5 mM CaCl2. All binding experiments were carried out in binding buffer unless otherwise indicated. The active site stabilizing agent set forth Formula I was dissolved in 50 mM Tris pH 8.0 to a final concentration of 9 mM giving a yellow colour. Isothermal titration calorimetry (iTC200, from GE healthcare) was chosen as the method of choice for determining binding parameters. Each iTC200 run involved filling the cell with the protease (approximately 200 μL) and the syringe with the active site stabilizing agent (approximately 40 μL). Temperature was set as required and the protease was allowed to equilibrate under given experimental conditions (approximately 10 minutes). Typically 17-20 injections (of 2-2.5 μL) of active site stabilizing agent into the cell, containing protease, were performed. The first injection was always of 0.2 μL and was discarded from the final data analysis. Stirring speed was set between 700-1000 rpm. Filter period for data collection was 5 sec with a high feedback mode setting. Each titration was spaced by 120 sec. Raw data was processed to set the baseline, integrate each peak to get a final isotherm. This isotherm was fit to a single-site model to yield Kd, stoichiometry (n), ΔH, and ΔS values to complete characterization of binding of active site stabilizing agents to a protease. Each binding experiment was repeated at least twice. Tables 14, 15 and 16 summarizes binding of active site binding agents to SF-FVIIa and Vatreptacog alfa under varying solution conditions as described below.

The target in another assay is T2, rFVIIa (Homo sapiens, UniProt P08709).
T2 construct: made in house
T2 sequence (P08709 213-466 limits assumed): T1 sequence (P08709 213-466 limits assumed)
T2 sequence (P08709 61-212 limits assumed): T1 sequence (P08709 61-212 limits assumed)
Put plainly: Isothermal titration calorimetry (iTC200) binding to rFVIIa. To be noted: for Kd: binding buffer. The procedure: as §1
A general note: In ITC the heat of successive injections is recorded.

For a further assay, the target named is T3, V158D/E296V/M298Q-FVIIa (Homo sapiens, UniProt P08709, E356V/M358Q/V218D).
T3 construct: made in house
T3 sequence (P08709 213-466 V218D/E356V/M358Q limits assumed): T1 sequence (P08709 213-466 limits assumed) with V6D, E144V, M146Q
T3 sequence (P08709 61-212 limits assumed): T1 sequence (P08709 61-212 limits assumed)
Put plainly: Isothermal titration calorimetry (iTC200) binding to V158D/E296V/M298Q-FVIIa. On the procedure:
as §1

The subject of assay [1] is tail bleeding in F8-KO mice. Put plainly: Tail bleeding in FVIII knock out (F8-KO) mice. To be noted: dose 3 mg/kg i.v. Format: in vivo. The text has this: The biological in vivo efficacy and potency of recombinant factor VIIa (rFVIIa) co-formulated with the active site stabilizing agent with Formula I in the molar ratio 1:[…]; 2.5; 5; […] in FVIII knock out (F8-KO) mice (Bi L, Sarkar R, Naas T, Lawler A M, Pain J, Shumaker S L et al. Further characterization of factor VIII-deficient mice created by gene targeting: RNA and protein studies. Blood 1996; 88:3446-).
Tail bleeding was initiated in Isofluran anesthetized F8-KO mice by transection of 4 mm of the tip of the tail 5 min after dosing rFVIIa, rFVIIa:active site stabilizing agent (1:1.75) or vehicle iv in a tail vein in the mice. Bleeding time and blood loss was measured for a 30 minutes period in 37° C. saline as described elsewhere (Elm T; Karpf D M; Øvlisen K; Pelzer H; Ezban M; Kjalke M; Tranholm M. Pharmacokinetics and pharmacodynamics of a new recombinant FVIII (N8) in haemophilia A mice. Haemophilia, 2012; 18 (1), 139-145). […] The bleeding time vs dose of rFVIIa and rFVIIa:active site stabilizing agent (1:1.75) show very similar dose response curves.
The in vivo effect of serum free recombinant FVIIa (SF-rFVIIa) and SF-rFVIIa co-formulated with the active site stabilizing agent set forth in Formula I in the molar ratio 1:2.5 was studied with the same design in the tail bleeding model in F8-KO mice at the concentration 1; 2.5; 5; 10 and 15 mg/kg. […]

[2] abbreviates: iTC200, binding buffer pH 7.4, 20° C.

Numbering of substitutions follows the chain as printed.

Regarding `COc1cccc([C@H](C)NC(=O)CNC(=O)Nc2ccc(C(=N)N)cc2)c1` [Formula A, S-2-[3-(4-Carbamimidoylphenyl)ureido]-N-[1-(3-methoxyphenyl)-ethyl]-acetamide, reference compound], the Kd at SF-rFVIIa (setting [2]) was determined as 1780 nM.

For `N=C(N)c1ccc2[nH]c(-c3cc(CC(=O)N[C@@H](CC(=O)O)C(=O)O)cc(-c4cc(S(N)(=O)=O)ccc4O)c3O)nc2c1` [Formula I, (S)-2-{2-[5-(5-carbamimidoyl-1H-benzoimidazol-2-yl)-6,2′-dihydroxy-5′-sulfamoyl-biphenyl-3-yl]acetylamino}-succinic acid], the “fold difference in binding at 20° C. and 37° C.” value at rFVIIa is listed as 23 fold; on SF-rFVIIa (SF-FVIIa) it was 17 fold; on V158D/E296V/M298Q-FVIIa, 21 fold. The Kd on rFVIIa (20° C.) came out at 12.9 nM; on rFVIIa (37° C.), 296 nM; on SF-rFVIIa (binding buffer, 37° C.), 334 nM; on SF-rFVIIa (setting [2]), 20 nM; on SF-rFVIIa (pH 5.5, 20° C.), 1560 nM; on SF-rFVIIa (pH 6.5, 20° C.), 43 nM. For the same compound, the Kd on SF-rFVIIa (pH 8.5, 20° C.) came out at 130 nM; on V158D/E296V/M298Q-FVIIa (binding buffer pH 7.4, 20° C.), 2.18 nM; on V158D/E296V/M298Q-FVIIa (binding buffer, 37° C.), 46 nM; on V158D/E296V/M298Q-FVIIa (pH 5.5, 20° C.), 77 nM; at V158D/E296V/M298Q-FVIIa (pH 6.5, 20° C.), 9 nM; on V158D/E296V/M298Q-FVIIa (pH 8.5, 20° C.), 6 nM.

Take “Vatreptacog Alfa: FVIIa sequence variant, V158D/E296V/M298Q-FVII, three amino acids of the wild-type human sequence replaced”: in assay [1], the “In vivo tail bleeding as blood loss, mean” value is listed as 1207 nmol haemoglobin.

For `N=C(N)c1ccc2[nH]c(-c3cc(CC(=O)N[C@H](CC(=O)O)C(=O)O)cc(-c4cc(S(N)(=O)=O)ccc4O)c3O)nc2c1` [Formula II, (R)-2-{2-[5-(5-carbamimidoyl-1H-benzoimidazol-2-yl)-6,2′-dihydroxy-5′-sulfamoyl-biphenyl-3-yl]acetylamino}-succinic acid], the affinity on SF-rFVIIa (setting [2]), expressed as Kd, was 12 nM.

For orientation: Kd means the concentration at which binding is half-saturated. Higher therefore signals weaker binding.
